# Measurements reported in patent US20240092779A1, “USP1 INHIBITORS AND USES THEREOF” (Zentaur Therapeutics USA Inc., priority 2022, published 2024).
# Key:
# [1] = system: HCC1806 Ub-PCNA (USP1); experiment: USP1 Western Blot Protocol (HCC1806 Ub-PCNA); type: cell-based; details: Homo sapiens, HCC1806 cells, 4 hours
# Method in brief: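 HCC1806 cells seeded overnight, then treated 4 h at 37 °C with a 5-point, 4-fold dilution series (0.1% DMSO). Lysates immunoblotted for Ub-PCNA with fluorescent detection; inhibition expressed as % vehicle from Ub-PCNA upregulation, IC50 by four-parameter logistic fit.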
# [2] = Solubility in FaSSIF (Fasted State Simulated Intestinal Fluid); type: physicochemical; details: kinetic from dmso stock, FaSSIF pH 6.5, 25° C.
# Method in brief: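 Apparent solubility measured in FaSSIF at pH 6.5 from a 10 mM DMSO stock, shaken at 25° C, 1100 RPM for 2 h and then filtered. Filtrate quantified by LC/MS/MS against a 3 μM standard with internal standard, corrected by dilution factor.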
Compound,IC50 [1] [µM],solubility at 2 h [2] [µM]
COc1ncnc(C2CC2)c1-c1ncc2cc(-c3c(C)noc3C)c(=O)n(Cc3ccc(-c4nc(C(F)(F)F)cn4C4CC4)cc3)c2n1 [Compound I-155],< 0.01,10 to 100
"COc1cc(Cn2c(=O)ccc3c(C)nc(-c4c(OC)ncnc4C4CC4)nc32)ccc1-c1nc(C(F)(F)F)cn1C1CC1 [Compound I-152, 8-({4-[1-cyclopropyl-4-(trifluoromethyl)imidazo]-2-yl]-3-methoxyphenylmethyl)-2-(4-cyclopropyl-6-methoxypyrimidin-5-yl)-4-methylpyrido[2,3-d]pyrimidin-7-one]",< 0.01,≥ 100
"COc1ncnc(C2CC2)c1-c1nc(C)c2cc(-c3cnn(C)c3)c(=O)n(Cc3ccc(-c4nc(C(F)(F)F)cn4C4CC4)cc3)c2n1 [Compound I-148, 8-({4-[1-Cyclopropyl-4-(Trifluoromethyl)Imidazol-2-Yl]Phenyl}Methyl)-2-(4-Cyclopropyl-6-Methoxypyrimidin-5-Yl)-4-Methyl-6-(1-Methylpyrazol-4-Yl)Pyrido[2,3-d]Pyrimidin-7-One]",< 0.01,≥ 100
"COc1ncnc(C2CC2)c1-c1ncc2ccc(=O)n(Cc3ccc(-c4nc(C(F)(F)F)cn4C(C)C)cc3)c2c1F [Compound I-27, 7-(4-cyclopropyl-6-methoxypyrimidin-5-yl)-8-fluoro-1-({4-[1-isopropyl-4-(trifluoromethyl)imidazol-2-yl]phenyl}methyl)-1,6-naphthyridin-2-one]",0.01 to 0.1,< 10
"COc1ncnc(C2CC2)c1-c1nc(C)c2cc(-c3ncnn3C)c(=O)n(Cc3ccc(-c4nc(C(F)(F)F)cn4C4CC4)cc3)c2n1 [Compound I-167, 8-({4-[1-Cyclopropyl-4-(Trifluoromethyl)Imidazol-2-Yl]Phenyl}Methyl)-2-(4-Cyclopropyl-6-Methoxypyrimidin-5-Yl)-4-Methyl-6-(2-Methyl-1,2,4-Triazol-3-Yl)Pyrido[2,3-d]Pyrimidin-7-One]",0.01 to 0.1,10 to 100
COc1ncnc(C2CC2)c1-c1ncc2cc(-c3cnn(C)n3)c(=O)n(Cc3ccc(-c4nc(C(F)(F)F)cn4C4CC4)cc3)c2n1 [Compound I-151],< 0.01,10 to 100
COc1ncnc(C2CC2)c1-c1ncc2cc(-c3ncnn3C)c(=O)n(Cc3ccc(-c4nc(C(F)(F)F)cn4C4CC4)cc3)c2n1 [Compound I-156],0.01 to 0.1,≥ 100
"COc1ncnc(C2CC2)c1-c1ncc2ccc(=O)n(Cc3ccc(-c4cccc(C(F)(F)F)n4)cc3)c2n1 [Compound I-36, 2-(4-cyclopropyl-6-methoxypyrimidin-5-yl)-8-({4-[6-(trifluoromethyl)pyridin-2-yl]phenyl}methyl)pyrido[2,3-d]pyrimidin-7-one]",0.01 to 0.1,< 10
COc1cc(Cn2c(=O)ccc3c(C)nc(-c4c(OC)ncnc4C4CC4)nc32)cc(F)c1-c1nc(C(F)(F)F)cn1C1CC1 [Compound I-163],< 0.01,10 to 100
"COc1ncnc(C2CC2)c1-c1nc(C)c2cc(C3CCN(C)CC3)c(=O)n(Cc3ccc(-c4nc(C(F)(F)F)cn4C4CC4)cc3)c2n1 [Compound I-157, 8-({4-[1-Cyclopropyl-4-(Trifluoromethyl)Imidazol-2-Yl]Phenyl}Methyl)-2-(4-Cyclopropyl-6-Methoxypyrimidin-5-Yl)-4-Methyl-6-(1-Methylpiperidin-4-Yl)Pyrido[2,3-d]Pyrimidin-7-One]",< 0.01,≥ 100
"COc1ncnc(C2CC2)c1-c1ncc2cc(-c3ncnn3C)c(=O)n(Cc3ccc(-c4nc(C(F)(F)F)cn4C(C)C)cc3)c2n1 [Compound I-168, 2-(4-Cyclopropyl-6-Methoxypyrimidin-5-Yl)-8-({4-[1-Isopropyl-4-(Trifluoromethyl)Imidazol-2-Yl]Phenyl}Methyl)-6-(2-Methyl-1,2,4-Triazol-3-Yl)Pyrido[2,3-d]Pyrimidin-7-One]",< 0.01,10 to 100
COc1ncnc(C2CC2)c1-c1ncc2cc(-c3cn(C)nn3)c(=O)n(Cc3ccc(-c4nc(C(F)(F)F)cn4C4CC4)cc3)c2n1 [Compound I-150],< 0.01,10 to 100
"COc1ncnc(C2CC2)c1-c1ncc2cc(-c3ncn(C)n3)c(=O)n(Cc3ccc(-c4nc(C(F)(F)F)cn4C4CC4)cc3)c2n1 [Compound I-153, 8-({4-[1-cyclopropyl-4-(trifluoromethyl)imidazo]-2-yl]phenylmethyl)-2-(4-cyclopropyl-6-methoxypyrimidin-5-yl)-6-(1-methyl-1,2,4-triazol-3-yl)pyrido[2,3-d]pyrimidin-7-one]",< 0.01,≥ 100
